The subject of test [1] is full thickness incision wounds. As to the kind of experiment: Rat full thickness incision model (Example 2). Type of test: in vivo, Sprague Dawley rats. Conditions: for early inflammation and wound dehiscence / number of incisions that were free of scar / overall scar formation: into the subcutaneous space prior to closure with DermaBond; for early inflammation and wound dehiscence: FIG. 1, day 5; for number of incisions that were free of scar: later time points after healing, FIG. 2, days 14, 19, 21; for overall scar formation: later time points, FIG. 3, scar score rank days 14 and 19; for healing time / number of incisions with no scar by gross observations: repeated; for healing time: systemic administration (especially pretreatment with 100 μg/kg body weight/day of 9GD), FIGS. 4-6; for number of incisions with no scar by gross observations: systemic administration, FIGS. 7-9, days 14 and 21. The procedure:
This study was designed to compare the effect of a daily administration of AII(1-7) and 9GD on the healing of full thickness incision wounds in a rat model. For topical administration, the viscous vehicle was prepared from carboxymethylcellulose (CMC sodium salt, low viscosity, Sigma Chemical CO., St. Louis, Mo. (Lot number 34H0310)), consisting of 10% low viscosity CMC in 0.05 M phosphate buffer, pH 7.2, and was sterilized by autoclaving followed by mixing with sterile peptide solutions or DermaBond (provided by Ethicon, Inc.), AII(1-7) and 9GD were prepared by Bachem (Torrence, Calif.) under GMP conditions.
During the experimental period, Sprague Dawley rats (5 per group) were used in this study. The rats were housed one per cage in the University of Southern California vivarium on a 12:12 hour light/dark cycle. Food and water were available ad libitum.
On the dorsal surface of the rats, two full thickness incisions (approximately 3 cm in length) were made on a prepared surface under aseptic conditions. After injury, placebo or AII(1-7) (100 μg/wound [topical], or 100 μg/kg body weight [systemic]) or 9GD (10, 100, or 500 μg/wound [topical], or 10, 100, or 500 μg/kg body weight [systemic]) was administered. The wound was sutured closed (if the peptide was not given in an adhesive base) or was closed with […] (in groups that have the peptide administered with cyanoacrylate (DermaBond™)).
The animals were monitored for breathing, urination, and movement during the postoperative interval. Postoperative analgesic included twice daily administration of bupronex for 3 days post-operation. […] On day 21, the rats were euthanized by CO2 asphyxiation and tissues were harvested for histologic preparation.
Scar formation was assessed grossly, including assessment of inflammationh, dehiscence, scabbing, healing (defined as % of incision healed), and scarring. Inflammation, dehiscence, scabbing, and scarring were assessed on a 4 point scale (0, 1, 2, or 3) for none, mild, moderate, and severe, respectively. The severity of the scar was defined by the appearance of disruption, the contour of the healing site, the raising of the healing area, and the ability to note by gross observation that the wound had been made.

Test [2] can be described thus: Unspecified test of effectiveness of AII fragments. To be noted: test not specified.
The subject of test [3] is 2 cm midline laparotomy incision. As to the kind of experiment: Anti-scarring effect after rat laparotomy (Example 1). Type of test: in vivo, Sprague Dawley rats. Conditions: 100 μg/kg/day subcutaneously, 3 days prior to surgery and 11 days until necropsy; 11 day post-operative observation. As to the method: Female Sprague Dawley rats, weighing between 175 and 225 grams each, were used in this study. The rats were quarantined at least two days prior to surgery. The rats were housed in the University of Southern California vivarium on a 12:12 hour light/dark cycle. Food and water were available ad libitum except in the immediate postoperative period.
The rats underwent a standardized procedure for laparotomy (intramuscular anesthesia with ketamine/rompum, shaving with animal clippers, betadine scrub, alcohol scrub). A 2 cm incision was then made on the midline. A double-walled gelatin capsule was placed on the right side of the abdomen through the incision. The animals were subcutaneously injected with the peptides (detailed below) (100 μg/kg/day) for 3 days prior to surgery, and then for 11 days until necropsy. The abdominal wall and skin was then sutured closed using two layers of 4-0 Ethilon suture. Following surgery, the rats received analgesic for three days and were observed twice daily for signs of morbidity and mortality.

Test [4] has as its system cultured cells that are involved in wound repair. Conditions: cited from earlier work.
In test [5] the test system is primary human keratinocytes. To be noted: via a non-AT1, non-AT2 receptor; cited from earlier work.
In test [6] the test system is rabbit corneal eye. To be noted: rabbit corneal eye model; cited from earlier work.
Test [7] deals with wound tissue. To be noted: application to wound tissue; cited from earlier work.
The subject of test [8] is chick chorioallantoic membrane. To be noted: chick chorioallantoic membrane model; cited from earlier work.
Setting [9] is: single dose in CMC in the subcutaneous space, FIG. 10.
[10] abbreviates: single dose in CMC in the subcutaneous space, FIG. 11.

“Also recorded” adds a separate entry of the source. Where no end group is shown, it is not given here. [ ]: non-standard residue; d: D form. Nle = CCCC[C@H](N)C(=O)O

As for “Asp-Arg-Val-Tyr-Ile-His-Pro (DRVYIHP) [AII(1-7)]”, in test [1], the “early inflammation and wound dehiscence” value was “reduced”; the “number of incisions that were free of scar” value is “increased”; the overall scar formation result was “increased”; the healing time result is reported as “accelerated”. Further, the “number of incisions with no scar by gross observations” value in test [1] is on record as “increased”. Besides, the healing result in test [1] (setting [9]) is given as “accelerated healing”. Also, the scar formation entry in test [1] (setting [10]) is listed as “reduced scar formation”. Further, in test [1] (single dose, systemic), the healing entry is on record as “did not accelerate healing” and the scar formation entry is given as “did reduce scar formation”.

For the substance Tyr-Ile-His-Pro-Phe (YIHPF) [AII(4-8)], the effectiveness result in test [2] was “not to be effective; also recorded: ineffective”.

As to His-Pro-Phe (HPF) [AII(6-8)], the effectiveness result in test [2] was “not to be effective”.

For DRKYIHP [5GD], in test [3], the “scar apparent upon gross observation” value is “no scar was apparent” and the wound closure result was “complete”.

For the substance DR(nor)YIHP (DR[Nle]YIHP) [9GD], in test [1], the “early inflammation and wound dehiscence” value was “reduced”; the “number of incisions that were free of scar” value is given as “increased”; the overall scar formation result is “increased”; the healing time result is reported as “accelerated”. For the same substance, the “number of incisions with no scar by gross observations” value in test [1] was “increased”. For the same substance, the healing entry in test [1] (setting [9]) is given as “accelerated healing”. In test [1] (setting [10]), the scar formation result is reported as “reduced scar formation”. Moreover, in test [1] (single dose, systemic), the healing entry is “did not accelerate healing” and the scar formation entry is given as “did reduce scar formation”. In test [3], the “scar apparent upon gross observation” value is given as “no scar was apparent” and the wound closure result was “complete”.

For Asp-Arg-Val-Tyr-Ile-His-Pro-Phe [AII], in test [4], the mitogenesis and chemotaxis result is recorded as “increases”; the “release of growth factors and extracellular matrices” value is reported as “increases”. Further, the “proliferation of primary human keratinocytes” value in test [5] is recorded as “stimulate proliferation”. Besides, the angiogenic result in test [6] is on record as “angiogenic”. Further, in test [7], the “rate of wound healing” value was “significantly increases”. Also, in test [8], the angiogenic entry is “angiogenic”.

Source of the values: patent US6730775B1, “Methods for limiting scar and adhesion formation” (University of Southern California, priority 1999, dated 2004).
